Patent US4665083A, “Iminothiazolidine derivatives” (priority 1984, dated 1987)
Where two headings read alike, the source gives them in different places.

Legend:
[1] = tested on: Tetrabenazine ptosis; assay: animal or person; format: in vivo; conditions: for Therapeutical index (tetrabenazine ptosis antagonism): LD50 and ED50 tetrabenazine ptosis, mice; for ED50: Mus musculus, po, read-out: Tetrabenazine ptosis antagonism ED50
Experimental: (2) Tetrabenazine ptosis antagonism on mice
The tetrabenazine ptosis antagonism of the compounds are tested on groups consisting of 10 mice each. […] 30 minutes after the introduction of the active agent or the vehicle, 50 mg/kg of tetrabenazine (3-isobutyl-9,10-[…]-1,2,3,4,6,7-hexahydrobenzo[a]quinolizine-2-one) are administered, intraperitoneally, and the animals with ptosis are counted 30, 60, 90 and 120 minutes after the administration of the tetrabenazine.
Evaluation: the average ptosis value is calculated in each group, and the deviation from the average obtained for the control group (inhibition) is given in percentage. From the data obtained ED50 values are calculated.

[2] = tested on: Reserpine ptosis; assay: animal or person; format: in vivo; conditions: for Therapeutical index (reserpine ptosis antagonism): LD50 and ED50 reserpine ptosis, mice; for ED50: Mus musculus, sc, 1 h, read-out: Reserpine ptosis antagonism ED50
Experimental: (3) Reserpine ptosis antagonism on mice
Each group consisting of 10 mice are treated with 6 mg/kg of reserpine, subcutaneously. […] The animals with ptosis are counted 60 and 120 minutes after the administration of the compounds to be tested. Evaluation is carried out as given under point (2) above.

[3] = tested on: yohimbine toxicity; assay: animal or person; format: in vivo; conditions: for Therapeutical index (potentiation of yohimbine toxicity): LD50 and ED50 yohimbine toxicity, mice; for ED50: Mus musculus, ip, read-out: Potentiation of yohimbine toxicity ED50
Experimental: (4) Yohimbine toxicity test on mice.
The examination is performed according to Quinton's method. Each group of animals consisting of 10 mice are treated with the compounds to be tested and the vehicle without active agent, respectively. After one hour a sublethal dosage of yohimbine in a volume of 20 ml/kg body weight is administered to the test groups, intraperitoneally. The number of the dead animals is recorded 1 and 24 hours after the administration of yohimbine.

[4] = in vivo; conditions: mouse, mice, 7 days observation, Litchfield-Wilcoxon
Experimental: (1) Acute toxicity on mice
The acute toxicity is determined on mice of both sex (CFLP breed, body weight 18 to 22 g). For each dosis 6 animals are employed. The compounds tested are administered orally in a volume of 20 ml/kg body weight. After the administration the animals are observed for 7 days. During this period the animals are fed with standard mouse feed and water ad libitum. The toxicity values are determined according to Litchfield-Wilcoxon's method.

[5] = tested on: nicotine lethality; assay: Inhibition of nicotine spasm / nicotine lethality; format: in vivo, mice; conditions: for Therapeutical index (inhibition of nicotine lethality): LD50 and ED50 nicotine lethality; for ED50: Mus musculus, read-out: Inhibition of nicotine lethality ED50
Experimental: (5) Inhibition of nicotine spasm
The test is carried out on mice according to Stone.

[6] = tested on: pentatetrazole spasm; assay: animal or person; format: in vivo; conditions: for Therapeutical index (inhibition of pentatetrazole spasm): LD50 and ED50 pentatetrazole spasm, mice; for ED50: Mus musculus, po, read-out: Inhibition of pentatetrazole spasm ED50
Experimental: (6) Inhibition of pentatetrazole spasm
The test is performed on mice according to a modified method of Banziger and Hane.

[7] = tested on: maximum electroshock; assay: animal or person; format: in vivo; conditions: for Therapeutical index (inhibition of maximum electroshock): LD50 and ED50 electroshock, mice; for ED50: Mus musculus, po, read-out: Inhibition of maximum electroshock ED50
Experimental: (7) Maximum inhibition of electroshock
The examination is carried out on mice weighing 20 to 25 g according to Swinyard. Electroshocks having the parameters of 50 Hz, 45 mA and 0.4 sec are employed by means of corneal electrodes. The complete inhibition of the tonic spasm of the lower limb extensor is taken as the criterium of the anticonvulsive action.

[8] = tested on: acetic acid writhing; assay: animal or person; format: in vivo; conditions: for Therapeutical index (analgesic effect, writhing test): LD50 and ED50 writhing test, mice; for ED50: Mus musculus, ip, read-out: Analgesic effect (writhing test) ED50
Experimental: (9) Analgesic effect on mice (writhing test)
The test is carried out on mice according to the modified method of Newbould. 0.75 percent acetic acid is administered to the animals in a volume of 20 ml/kg, intraperitoneally, and the characteristic "writhing reactions" are counted for a period of 5 minutes, starting from the fifth minute after challenge. […] The inhibition relative to the control group is evaluated in percentage.

[9] = tested on: intestinal peristalsis; assay: animal or person; format: in vivo; conditions: for Therapeutical index (inhibition of intestinal peristalsis): LD50 and ED50 intestinal peristalsis, mice; for ED50: Mus musculus, po, read-out: Inhibition of intestinal peristalsis ED50
Experimental: (8) Antiperistaltic effect on mice
The antiperistaltic effect of the compounds is examined on mice weighing 20 to 25 g according to the method of Stickney and co-workers. Each dosis of the compound to be tested is administered, orally, 60 minutes prior to the administration of a 10 percent carbon suspension. […] 20 minutes after the administration of the carbon suspension, the animals are sacrificed, and the length of the entire small intestine as well as that of the small intestine filled with carbon are determined. The inhibition in relation to the control is calculated in percentage. […] From the values thus-transformed ED50 values are calculated.

[10] = mice, oral, 1 hour before 1.4 mg/kg i.v. nicotine

SMILES	Therapeutical index (tetrabenazine ptosis antagonism) [1]	ED50 [1]	Therapeutical index (reserpine ptosis antagonism) [2]	ED50 [2]	Therapeutical index (inhibition of nicotine lethality) ([5]; mice)	Therapeutical index (inhibition of pentatetrazole spasm) [6]	ED50 [6]	LD50 at 168 h ([4]; po)	Therapeutical index (analgesic effect, writhing test) [8]	ED50 [8]	Therapeutical index (inhibition of intestinal peristalsis) [9]	ED50 [9]	further results
CN(C)CCC=C1c2ccccc2CCc2ccccc21 [Amitriptylin, reference compound]	18.7	12 mg/kg	3.5	65 mg/kg									Therapeutical index (potentiation of yohimbine toxicity) [3]: 18; ED50 [3]: 12.5 mg/kg
Cl.Cl.N=C1SCCN1c1ccc(Cl)cc1N [Compound 1, 3-(2-amino-4-chlorophenyl)-2-iminothiazolidine dihydrochloride]	39	18 mg/kg	14	50 mg/kg	5.6	31.8	22 mg/kg						LD50 at 168 h ([4]; oral): 700 mg/kg; ED50 ([5]; po): 25 mg/kg; Therapeutical index (inhibition of maximum electroshock) [7]: 10; ED50 [7]: 70 mg/kg
Cl.Cl.N=C1SCCN1c1cc(Cl)ccc1N [Compound 2, 3-(2-amino-5-chlorophenyl)-2-iminothiazolidine dihydrochloride]	32	25 mg/kg				10.2	78 mg/kg	800 mg/kg	18.6	43 mg/kg			Therapeutical index (potentiation of yohimbine toxicity) [3]: 16; ED50 [3]: 50 mg/kg
CC1CSC(=N)N1c1ccc(Cl)cc1N.Cl.Cl (stereo not drawn) [Compound 3, 3-(2-amino-4-chlorophenyl)-2-imino-4-methylthiazolidine dihydrochloride]	67	3 mg/kg	67	3 mg/kg	31.3	25.6	7.8 mg/kg	200 mg/kg					ED50 [5, 10]: 6.4 mg/kg; Therapeutical index (inhibition of maximum electroshock) [7]: 14.2; ED50 [7]: 14 mg/kg
N=C1SCCN1c1ccc(C(F)(F)F)cc1N [Compound 4 (diethanesulfonate)]									8.1	160 mg/kg	52	25 mg/kg	
Cl.N=C1SCCN1c1ccc(C(F)(F)F)cc1N [Compound 4, 3-(2-amino-4-trifluoromethylphenyl)-2-iminothiazolidine hydrochloride]	32.5	40 mg/kg	38	34 mg/kg		8.1	160 mg/kg	1300 mg/kg			19.7	66 mg/kg	
Cl.N=C1SCCN1c1ccc(Cl)cc1[N+](=O)[O-] [Compound 5, 3-(4-chloro-2-nitrophenyl)-2-iminothiazolidine hydrochloride]					122	16.6	66 mg/kg	1100 mg/kg					ED50 [5, 10]: 9 mg/kg
Cl.N=C1SCCN1c1ccc(C(F)(F)F)cc1[N+](=O)[O-] [Compound 6, 3-(2-nitro-4-trifluoromethylphenyl)-2-iminothiazolidine hydrochloride]								800 mg/kg			100	8 mg/kg	
CCS(=O)(=O)O.CCS(=O)(=O)O.COc1ccc(N2CCSC2=N)c(N)c1 [Compound 7 (diethanesulfonate), 2-imino-3-(2'-amino-4'-methoxyphenyl)-thiazolidine di(ethanesulfonate)]								2000 mg/kg			10	200 mg/kg	
COc1ccc(N2CCSC2=N)c(N)c1.Cl.Cl [Compound 7, 3-(2-amino-4-methoxyphenyl)-2-iminothiazolidine dihydrochloride]	75	16 mg/kg						1200 mg/kg					
N=C1SCCN1c1cc(Cl)ccc1[N+](=O)[O-] [Compound 9, 3-(5-chloro-2-nitrophenyl)-2-iminothiazolidine]								700 mg/kg	13	54 mg/kg	38.9	18 mg/kg	
N=C1SCCN1c1ccccc1[N+](=O)[O-] [Compound 10, 3-(2-nitrophenyl)-2-iminothiazolidine]					24			700 mg/kg	17.5	40 mg/kg	5	140 mg/kg	ED50 ([5]; po): 50 mg/kg
Br.COc1ccc(N2CCSC2=N)c([N+](=O)[O-])c1 [Compound 11, 3-(4-methoxy-2-nitrophenyl)-2-iminothiazolidine hydrobromide]	16.3	40 mg/kg	16.3	40 mg/kg	14.4	19.11	34 mg/kg	650 mg/kg			6.2	105 mg/kg	ED50 [5, 10]: 45 mg/kg
Cc1ccc(N2CCSC2=N)c(N)c1 [Compound 13, 3-(2-amino-4-methylphenyl)-2-iminothiazolidine]			18.5	70 mg/kg	130			1300 mg/kg	8.1	160 mg/kg			Therapeutical index (potentiation of yohimbine toxicity) [3]: 25; ED50 [3]: 52 mg/kg; ED50 [5, 10]: 10 mg/kg
N=C1SCCN1c1ccc(N)cc1 [Compound 14, 3-(4-aminophenyl)-2-imino-1,3-thiazolidine]								400 mg/kg			4.4	50 mg/kg	Therapeutical index (potentiation of yohimbine toxicity) [3]: 20.0; ED50 [3]: 20 mg/kg
N=C1SCCN1c1ccc(N)cc1[N+](=O)[O-] [Compound 15, 3-(4-amino-2-nitrophenyl)-2-iminothiazolidine]								1200 mg/kg	10.4	115 mg/kg	12	130 mg/kg	
COc1ccc(Cc2nccc3cc(OC)c(OC)cc23)cc1OC [Papaverine, reference compound]											2.01	185 mg/kg	LD50 at 168 h ([4]; oral): 380 mg/kg
CC(=O)Nc1ccc(O)cc1 [Paracetamol, reference compound]										180 mg/kg			
OC(CCN1CCCCC1)(c1ccccc1)C1CCCCC1 (stereo not drawn) [Trihexyphenidyl, reference compound]													ED50 [5, 10]: 40 mg/kg
CN1C(=O)OC(C)(C)C1=O [Trimethadion, reference compound]							490 mg/kg						LD50 at 168 h ([4]; oral): 2050 mg/kg; ED50 [7]: 400 mg/kg
